In a compilation of properties of binary mixtures (doi:10.1016/j.fluid.2019.112447):

Test: xn = mol fraction of the nth substance listed
Conditions: 101 kPa

CCC(C)O (centres undefined) + CC[n+]1ccn(C)c1.O=S(=O)([O-])C(F)(F)F
x2 = 0
Conditions	viscosity [mPa·s]
298.15 K	2.58
303.15 K	2.27
313.15 K	1.77
318.15 K	1.58
323.15 K	1.41

CC[n+]1ccn(C)c1.O=S(=O)([O-])C(F)(F)F + CCC(C)O
viscosity [mPa·s]
Conditions	x1 = 0.1092	x1 = 0.1945	x1 = 0.2945	x1 = 0.3938	x1 = 0.4988	x1 = 0.5952	x1 = 0.6907	x1 = 0.7986	x1 = 0.903	x1 = 1
298.15 K	3.95	5.32	6.57	7.9	10.59	15.33	22.63	–	39.43	–
303.15 K	3.47	4.65	5.76	–	–	–	19.37	–	33.21	38.31
308.15 K	3.09	4.1	5.07	–	8.23	11.65	16.75	22.22	–	32.28
313.15 K	2.75	–	4.51	5.5	–	–	–	19.09	24.05	–
318.15 K	2.46	3.24	4.03	4.94	–	9.13	12.84	16.7	–	23.86
323.15 K	2.21	2.9	3.61	4.44	5.91	8.17	–	14.66	–	20.75

CCOS(=O)(=O)[O-].CC[n+]1ccn(C)c1 + CCC(C)O
viscosity [mPa·s]
Conditions	x1 = 0.1032	x1 = 0.2027	x1 = 0.2937	x1 = 0.3936	x1 = 0.4906	x1 = 0.5916	x1 = 0.6944	x1 = 0.7957	x1 = 0.8916	x1 = 1
298.15 K	4.62	–	9.73	14.02	19.79	28.15	–	–	71.7	96.2
303.15 K	4.29	–	9.16	12.67	–	24	33	44	–	75.9
308.15 K	3.46	5.31	7.53	–	14.29	20.49	27.81	36.7	–	60.7
313.15 K	2.94	–	6.51	–	13.06	–	23.65	30.7	38.7	–
318.15 K	2.56	–	5.76	8.37	11.43	15.38	20.32	26.1	32.5	40.9
323.15 K	2.03	3.36	–	7.36	10.09	13.57	17.64	22.35	27.4	33.8

CCC(C)O (centres undefined) + CCOS(=O)(=O)[O-].CC[n+]1ccn(C)c1
x2 = 0
Conditions	viscosity [mPa·s]
298.15 K	2.58
303.15 K	2.27
313.15 K	1.77
318.15 K	1.58
323.15 K	1.41
